Data published in publication PMC8459971, “Evaluation of the hepatotoxicity of the novel GPR40 (FFAR1) agonist CPL207280 in the rat and monkey” (PLoS ONE, 2021).
“And” between values parts separate entries of the source, which are not always exact repeats. Equal entries are not always repeated.

How the values were obtained:
MRP4 = biological target: T1, MRP4 (Homo sapiens, UniProt O15439); assay: Vesicular transport inhibition assay, MRP4; details: for Accumulation (counts per minute; CPM) with AMP / Accumulation (counts per minute; CPM) with ATP: MRP4;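 also: membrane vesicles with MRP4 incubated with compound and probe substrate plus 4 mM ATP, or AMP as passive-diffusion background, vesicular substrate uptake read by liquid scintillation counting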;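 as to Accumulation (counts per minute; CPM) with AMP: ATP 4 mM vs AMP background separates transporter uptake from diffusion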;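 as to Accumulation (counts per minute; CPM) with ATP: ATP 4 mM vs AMP background separates transporter uptake from diffusion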
T1 sequence (O15439 1-1325): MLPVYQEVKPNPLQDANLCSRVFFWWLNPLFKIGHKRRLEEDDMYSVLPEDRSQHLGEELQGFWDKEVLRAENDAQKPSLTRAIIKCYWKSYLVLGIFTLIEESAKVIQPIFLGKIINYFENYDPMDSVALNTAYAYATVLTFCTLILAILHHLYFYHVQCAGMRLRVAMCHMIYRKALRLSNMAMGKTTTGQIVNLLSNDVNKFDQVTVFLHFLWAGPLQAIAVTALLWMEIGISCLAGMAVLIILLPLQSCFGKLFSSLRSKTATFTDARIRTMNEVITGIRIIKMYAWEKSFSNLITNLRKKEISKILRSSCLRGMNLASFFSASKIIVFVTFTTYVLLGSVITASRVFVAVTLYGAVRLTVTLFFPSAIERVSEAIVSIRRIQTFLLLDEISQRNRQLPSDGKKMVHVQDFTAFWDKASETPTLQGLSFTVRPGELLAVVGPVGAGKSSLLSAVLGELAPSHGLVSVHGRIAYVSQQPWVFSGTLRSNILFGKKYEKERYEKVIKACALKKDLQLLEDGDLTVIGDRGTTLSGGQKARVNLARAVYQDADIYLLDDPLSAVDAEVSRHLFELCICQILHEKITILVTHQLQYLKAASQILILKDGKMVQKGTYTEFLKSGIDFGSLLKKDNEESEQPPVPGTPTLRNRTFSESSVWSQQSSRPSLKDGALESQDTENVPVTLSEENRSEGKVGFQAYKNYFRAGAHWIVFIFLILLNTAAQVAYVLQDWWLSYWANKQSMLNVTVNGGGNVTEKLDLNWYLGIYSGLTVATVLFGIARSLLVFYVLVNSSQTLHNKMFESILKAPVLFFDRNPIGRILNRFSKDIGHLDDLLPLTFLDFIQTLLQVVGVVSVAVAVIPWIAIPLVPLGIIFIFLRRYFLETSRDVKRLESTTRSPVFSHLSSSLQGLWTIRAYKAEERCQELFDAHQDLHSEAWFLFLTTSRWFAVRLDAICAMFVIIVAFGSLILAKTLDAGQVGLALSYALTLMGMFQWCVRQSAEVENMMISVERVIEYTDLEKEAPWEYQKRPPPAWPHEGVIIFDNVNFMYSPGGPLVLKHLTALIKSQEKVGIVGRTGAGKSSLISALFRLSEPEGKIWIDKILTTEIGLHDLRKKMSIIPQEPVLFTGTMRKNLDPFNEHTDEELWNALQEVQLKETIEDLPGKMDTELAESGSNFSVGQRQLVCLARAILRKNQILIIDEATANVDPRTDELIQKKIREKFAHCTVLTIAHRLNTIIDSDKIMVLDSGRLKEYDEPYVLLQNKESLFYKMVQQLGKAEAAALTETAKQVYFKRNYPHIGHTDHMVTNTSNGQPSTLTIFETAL
Method: (§2) In the vesicular transport inhibition assay (for BSEP, MRP) compounds were incubated with membrane vesicle preparations and the probe substrate. Incubations were carried out in the presence of 4 mM ATP or AMP to distinguish between transporter-mediated uptake and passive diffusion into the vesicles. For MRP2 and MRP3, reactions were carried out in the presence of 2 mM glutathione. Compounds were added to the reaction mixture in 0.75 μL of solvent (1% of the final incubation volume). […] Reactions were initiated by the addition of 25 μL of 12 mM MgATP (or 12 mM AMP in assay buffer as a background control) and preincubated separately. Reactions were quenched by the addition of 200 μL of ice-cold washing buffer and immediate filtration via glass fiber filters mounted on a 96-well plate (filter plate). The filters were washed (5 × 200 μL of ice-cold washing buffer), dried, and the amount of substrate inside the filtered vesicles was determined by liquid scintillation counting.

[1] = Stability in microsomes, mini pig; format: in vitro ADME; details: for average DEG [%]: minipig microsomes, with cofactors
Method: (§1) The final incubation volume was 500 μL. Two control compounds (verapamil and donepezil) were included for each microsomal species, along with the appropriate vehicle control. The reactions were terminated by transferring 50 μL of incubate to 100 μL methanol containing an internal standard (metoprolol) at appropriate time points (0, 10, 20, 40, 60, and 120 min for the test compound and 0, 5, 10, 20, 40, and 60 min for the control compounds). The termination plates were centrifuged at 4000 x g at 4°C for 30 min to precipitate the protein. The supernatants were then collected for analysis, and LC-MS/MS was used for detection purposes. The system consisted of an Acquity™ Binary Solvent Manager, Acquity™ 4-position heated column manager, 2777 Ultra High Pressure Autosampler, and a Xevo-TQ MS triple quadrupole mass spectrometer (Waters Ltd., Herts, UK). This process was carried out twice.

MRP2 = MRP2 (Homo sapiens, UniProt Q92887); assay: Vesicular transport inhibition assay, MRP2; details: for Accumulation (counts per minute; CPM) with AMP / Accumulation (counts per minute; CPM) with ATP: MRP2;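 also: membrane vesicles with probe substrate plus 2 mM glutathione, incubated with 4 mM ATP or AMP (AMP as background control), vesicle-retained substrate measured by liquid scintillation counting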;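 as to Accumulation (counts per minute; CPM) with AMP: ATP 4 mM vs AMP background separates transporter uptake from diffusion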;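 as to Accumulation (counts per minute; CPM) with ATP: ATP 4 mM vs AMP background separates transporter uptake from diffusion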
MRP2, sequence (Q92887 whole entry, the tested form may be a part): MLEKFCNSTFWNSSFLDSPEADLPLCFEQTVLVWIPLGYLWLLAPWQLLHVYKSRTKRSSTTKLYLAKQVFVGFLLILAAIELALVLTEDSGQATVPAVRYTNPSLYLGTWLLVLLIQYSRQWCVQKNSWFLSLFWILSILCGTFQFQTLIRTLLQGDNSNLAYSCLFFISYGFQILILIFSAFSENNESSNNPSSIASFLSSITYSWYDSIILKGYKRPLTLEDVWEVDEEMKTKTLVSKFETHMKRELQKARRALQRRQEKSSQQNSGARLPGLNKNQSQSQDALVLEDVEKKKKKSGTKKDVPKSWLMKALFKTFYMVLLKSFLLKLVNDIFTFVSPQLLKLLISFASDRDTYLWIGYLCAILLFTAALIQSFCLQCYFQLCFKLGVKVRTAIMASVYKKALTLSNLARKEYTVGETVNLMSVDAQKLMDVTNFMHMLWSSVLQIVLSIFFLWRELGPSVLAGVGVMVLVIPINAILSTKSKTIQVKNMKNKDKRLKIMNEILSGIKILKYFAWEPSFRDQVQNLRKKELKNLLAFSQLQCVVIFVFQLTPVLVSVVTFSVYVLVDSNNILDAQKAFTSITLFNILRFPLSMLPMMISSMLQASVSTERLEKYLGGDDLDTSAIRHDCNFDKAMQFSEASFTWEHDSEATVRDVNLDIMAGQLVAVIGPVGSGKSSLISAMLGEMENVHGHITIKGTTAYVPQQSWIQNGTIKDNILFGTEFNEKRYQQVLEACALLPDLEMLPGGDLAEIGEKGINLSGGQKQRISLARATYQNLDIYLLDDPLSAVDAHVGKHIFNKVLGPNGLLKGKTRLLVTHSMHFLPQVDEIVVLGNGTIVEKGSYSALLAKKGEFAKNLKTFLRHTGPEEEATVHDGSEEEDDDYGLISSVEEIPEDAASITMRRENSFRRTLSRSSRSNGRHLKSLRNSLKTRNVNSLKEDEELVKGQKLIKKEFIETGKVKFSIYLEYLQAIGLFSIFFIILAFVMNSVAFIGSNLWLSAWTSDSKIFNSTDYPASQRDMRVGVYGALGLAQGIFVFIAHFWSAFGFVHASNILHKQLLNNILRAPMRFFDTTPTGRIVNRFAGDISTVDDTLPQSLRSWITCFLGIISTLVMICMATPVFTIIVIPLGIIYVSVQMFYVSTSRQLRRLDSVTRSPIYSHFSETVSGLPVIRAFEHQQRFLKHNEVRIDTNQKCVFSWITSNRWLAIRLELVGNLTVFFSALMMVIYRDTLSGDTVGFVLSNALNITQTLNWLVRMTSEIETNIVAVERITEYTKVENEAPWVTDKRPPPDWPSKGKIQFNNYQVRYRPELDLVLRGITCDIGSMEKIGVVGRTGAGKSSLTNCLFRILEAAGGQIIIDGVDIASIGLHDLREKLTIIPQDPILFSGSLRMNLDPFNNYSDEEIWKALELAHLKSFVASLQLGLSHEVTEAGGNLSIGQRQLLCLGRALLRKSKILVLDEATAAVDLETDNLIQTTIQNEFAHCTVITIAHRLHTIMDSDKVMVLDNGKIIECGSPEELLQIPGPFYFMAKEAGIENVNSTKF
Method: as §2

[2] = Stability in microsomes, dog; format: in vitro ADME; details: for average DEG [%]: dog microsomes, with cofactors
Method: as §1

[3] = Stability in microsomes, monkey; format: in vitro ADME; details: for average DEG [%]: monkey microsomes, with cofactors
Method: as §1

[4] = Mini pig microsomes, mean n = 2
[5] = Dog (Beagle) microsomes, mean n = 2
[6] = Monkey (Cynomolgus) microsomes, mean n = 2

Compound: Cc1cc(OCCCS(C)(=O)=O)cc(C)c1-c1cccc(COc2ccc3c(c2)OC[C@H]3CC(=O)O)c1 [TAK-875, fasiglifam, reference compound]
- IC50 (MRP4): 6.9 µM
- Accumulation (counts per minute; CPM) with AMP (MRP4; conc 0.07 µM): 1270 CPM and 1266 CPM
- Accumulation (counts per minute; CPM) with ATP (MRP4; conc 0.07 µM): 5265 CPM and 5304 CPM
- Accumulation (counts per minute; CPM) with AMP (MRP4; conc 0.21 µM): 1193 CPM and 1241 CPM
- Accumulation (counts per minute; CPM) with ATP (MRP4; conc 0.21 µM): 5360 CPM and 5232 CPM
- Accumulation (counts per minute; CPM) with AMP (MRP4; conc 0.62 µM): 1249 CPM and 1265 CPM
- Accumulation (counts per minute; CPM) with ATP (MRP4; conc 0.62 µM): 5330 CPM and 5164 CPM
- Accumulation (counts per minute; CPM) with AMP (MRP4; conc 16.67 µM): 1183 CPM and 1161 CPM
- Accumulation (counts per minute; CPM) with ATP (MRP4; conc 16.67 µM): 1970 CPM and 2307 CPM
- Accumulation (counts per minute; CPM) with AMP (MRP4; conc 50.00 µM): 1007 CPM and 1016 CPM
- Accumulation (counts per minute; CPM) with ATP (MRP4; conc 50.00 µM): 1338 CPM and 1487 CPM
- half-life at 3 μM [1, 4]: 15 min
- microsomal CLint at 3 μM [1, 4]: 91.1 µL/min/mg
- average DEG [%] ([1]; 0 min): 100.0%
- average DEG [%] ([1]; 20 min): 29.4%
- average DEG [%] ([1]; 40 min): 13.1%
- average DEG [%] ([1]; 60 min): 5.83%
- IC50 (MRP2): 48.1 µM
- Accumulation (counts per minute; CPM) with AMP (MRP2; conc 0.07 µM): 234 CPM and 221 CPM
- Accumulation (counts per minute; CPM) with ATP (MRP2; conc 0.07 µM): 3160 CPM and 3355 CPM
- Accumulation (counts per minute; CPM) with AMP (MRP2; conc 0.21 µM): 218 CPM and 217 CPM
- Accumulation (counts per minute; CPM) with ATP (MRP2; conc 0.21 µM): 3318 CPM and 3579 CPM
- Accumulation (counts per minute; CPM) with AMP (MRP2; conc 0.62 µM): 249 CPM and 186 CPM
- Accumulation (counts per minute; CPM) with ATP (MRP2; conc 0.62 µM): 3453 CPM and 3166 CPM
- Accumulation (counts per minute; CPM) with AMP (MRP2; conc 16.67 µM): 211 CPM and 200 CPM
- Accumulation (counts per minute; CPM) with ATP (MRP2; conc 16.67 µM): 2989 CPM and 3430 CPM
- Accumulation (counts per minute; CPM) with AMP (MRP2; conc 50.00 µM): 220 CPM and 191 CPM
- Accumulation (counts per minute; CPM) with ATP (MRP2; conc 50.00 µM): 1700 CPM and 1670 CPM
- half-life at 3 μM [2, 5]: 112 min
- microsomal CLint at 3 μM [2, 5]: 12.4 µL/min/mg
- average DEG [%] ([2]; 0 min): 100.0%
- average DEG [%] ([2]; 20 min): 82.2%
- average DEG [%] ([2]; 40 min): 77.1%
- average DEG [%] ([2]; 60 min): 67.7%
- half-life at 3 μM [3, 6]: 30 min
- microsomal CLint at 3 μM [3, 6]: 39.2 µL/min/mg
- average DEG [%] ([3]; 0 min): 100.0%
- average DEG [%] ([3]; 20 min): 61.2%
- average DEG [%] ([3]; 40 min): 37.2%
- average DEG [%] ([3]; 60 min): 32.0%
